We go through three molecules from ChEMBL document CHEMBL4825753 (J Med Chem, 2021).

One data set concerns BaF3. The data set can be described thus: Growth inhibition of mouse BaF3 cells transfected with Tyro3 assessed as inhibition of cell growth incubated for 72 hrs by Cell-titer-Glo assay. It counts as functional.
Data set [1] is described as follows: Fraction unbound in C57BL/6J mouse implanted with mouse BaF3 cells transfected with MER in at 3 to 100 mg/kg, po bid for 6 days. Type of data set: ADME, organism-based. The note with it: in vivo, dose 3-100 mg/kg, time 6 day.
The target of data set [2] is T1, Tyrosine-protein kinase Mer (Homo sapiens, UniProt Q12866).
T1 sequence (Q12866 whole entry): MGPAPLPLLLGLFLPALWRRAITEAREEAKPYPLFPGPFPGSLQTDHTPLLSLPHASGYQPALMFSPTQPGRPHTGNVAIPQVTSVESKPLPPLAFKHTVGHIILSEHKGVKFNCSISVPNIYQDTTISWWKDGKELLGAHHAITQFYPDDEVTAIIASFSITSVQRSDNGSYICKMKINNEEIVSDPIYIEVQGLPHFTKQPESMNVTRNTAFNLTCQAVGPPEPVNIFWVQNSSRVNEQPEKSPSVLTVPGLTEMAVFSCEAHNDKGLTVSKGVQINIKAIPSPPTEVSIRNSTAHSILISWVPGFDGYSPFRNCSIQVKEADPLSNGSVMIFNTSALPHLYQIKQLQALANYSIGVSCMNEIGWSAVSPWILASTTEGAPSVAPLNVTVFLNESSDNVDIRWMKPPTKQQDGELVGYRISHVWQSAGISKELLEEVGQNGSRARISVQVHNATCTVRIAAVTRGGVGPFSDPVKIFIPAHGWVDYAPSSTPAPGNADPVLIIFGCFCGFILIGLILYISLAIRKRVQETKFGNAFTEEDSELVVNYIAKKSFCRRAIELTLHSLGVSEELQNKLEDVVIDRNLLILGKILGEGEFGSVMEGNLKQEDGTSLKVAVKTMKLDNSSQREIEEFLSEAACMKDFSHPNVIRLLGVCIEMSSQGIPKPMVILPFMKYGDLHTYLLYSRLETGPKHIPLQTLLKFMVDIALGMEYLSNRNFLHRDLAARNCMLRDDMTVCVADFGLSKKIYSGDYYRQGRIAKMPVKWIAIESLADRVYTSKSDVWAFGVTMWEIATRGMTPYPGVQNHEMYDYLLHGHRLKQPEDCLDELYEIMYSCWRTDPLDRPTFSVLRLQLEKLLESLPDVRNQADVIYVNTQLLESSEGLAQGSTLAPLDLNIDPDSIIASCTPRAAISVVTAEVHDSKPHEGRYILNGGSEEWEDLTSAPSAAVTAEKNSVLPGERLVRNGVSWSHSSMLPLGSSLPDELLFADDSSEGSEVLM
In words: Inhibition of MER (unknown origin) by LC-MS analysis.

For data set [3], the target named is T2, Tyrosine-protein kinase receptor UFO (Homo sapiens, UniProt P30530).
T2 sequence (P30530 whole entry): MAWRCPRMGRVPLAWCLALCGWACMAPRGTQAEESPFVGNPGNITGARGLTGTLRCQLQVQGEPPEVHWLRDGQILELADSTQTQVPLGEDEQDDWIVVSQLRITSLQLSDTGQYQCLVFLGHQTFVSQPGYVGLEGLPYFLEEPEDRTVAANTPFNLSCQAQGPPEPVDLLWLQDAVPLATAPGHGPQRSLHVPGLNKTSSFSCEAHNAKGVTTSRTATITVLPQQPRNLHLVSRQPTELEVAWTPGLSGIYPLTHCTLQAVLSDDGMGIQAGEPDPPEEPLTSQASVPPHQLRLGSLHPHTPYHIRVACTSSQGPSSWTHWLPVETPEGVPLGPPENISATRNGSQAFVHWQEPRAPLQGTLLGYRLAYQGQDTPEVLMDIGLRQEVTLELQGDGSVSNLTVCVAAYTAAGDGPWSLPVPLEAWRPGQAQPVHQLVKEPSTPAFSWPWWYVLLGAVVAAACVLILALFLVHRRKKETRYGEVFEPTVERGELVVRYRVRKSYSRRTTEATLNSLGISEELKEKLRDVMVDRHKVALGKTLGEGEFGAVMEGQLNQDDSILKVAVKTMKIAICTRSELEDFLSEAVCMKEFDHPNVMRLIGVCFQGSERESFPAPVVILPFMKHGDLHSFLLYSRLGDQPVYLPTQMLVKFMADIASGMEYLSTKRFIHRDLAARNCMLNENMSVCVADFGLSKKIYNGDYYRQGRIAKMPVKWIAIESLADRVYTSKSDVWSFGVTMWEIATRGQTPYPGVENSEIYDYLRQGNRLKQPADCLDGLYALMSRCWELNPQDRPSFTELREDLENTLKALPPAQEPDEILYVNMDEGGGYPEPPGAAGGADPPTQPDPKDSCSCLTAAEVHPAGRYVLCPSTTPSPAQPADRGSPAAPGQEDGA
The data set can be described thus: Inhibition of AXL (unknown origin) by LC-MS analysis.

The target of data set [4] is T3, Receptor-type tyrosine-protein kinase FLT3 (Homo sapiens, UniProt P36888).
T3 sequence (P36888 whole entry): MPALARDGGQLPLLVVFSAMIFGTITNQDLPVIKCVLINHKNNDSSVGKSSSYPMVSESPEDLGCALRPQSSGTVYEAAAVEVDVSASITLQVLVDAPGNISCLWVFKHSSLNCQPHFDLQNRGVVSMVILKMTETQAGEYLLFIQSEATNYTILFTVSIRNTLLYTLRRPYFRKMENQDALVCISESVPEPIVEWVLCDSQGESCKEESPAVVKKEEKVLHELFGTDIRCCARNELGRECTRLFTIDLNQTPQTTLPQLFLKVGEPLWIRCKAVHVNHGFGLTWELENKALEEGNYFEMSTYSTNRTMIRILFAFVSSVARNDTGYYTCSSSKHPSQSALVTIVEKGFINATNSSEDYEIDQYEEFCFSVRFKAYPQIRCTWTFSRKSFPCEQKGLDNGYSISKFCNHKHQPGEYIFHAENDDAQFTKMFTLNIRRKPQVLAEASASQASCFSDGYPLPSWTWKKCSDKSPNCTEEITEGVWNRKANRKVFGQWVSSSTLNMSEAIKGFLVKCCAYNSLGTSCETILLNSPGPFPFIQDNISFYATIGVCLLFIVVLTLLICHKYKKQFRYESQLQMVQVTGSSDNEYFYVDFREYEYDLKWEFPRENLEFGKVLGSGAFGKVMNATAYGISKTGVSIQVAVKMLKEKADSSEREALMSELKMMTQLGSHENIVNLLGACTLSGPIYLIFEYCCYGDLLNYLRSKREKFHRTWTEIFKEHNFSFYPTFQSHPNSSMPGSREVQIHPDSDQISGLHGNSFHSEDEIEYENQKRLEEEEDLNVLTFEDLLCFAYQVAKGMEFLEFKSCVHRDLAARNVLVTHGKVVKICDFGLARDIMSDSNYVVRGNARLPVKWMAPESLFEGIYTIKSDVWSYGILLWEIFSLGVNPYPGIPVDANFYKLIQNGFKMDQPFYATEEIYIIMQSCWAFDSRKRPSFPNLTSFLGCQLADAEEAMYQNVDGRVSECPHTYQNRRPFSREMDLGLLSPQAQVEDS
The data set can be described thus: Inhibition of FLT3 (unknown origin) by LC-MS analysis.

As to `Cc1cc(-c2c(C)nn(C)c2C)cnc1-c1nnc(N(C)Cc2ccc3ncc(-c4ccc(CN(C)C)cc4)n3c2)o1`, in the data set with BaF3, the GI50 is 5.01 µM. For the same molecule, the fraction unbound at 144 h in data set [1] turned out to be 0.076.
For the molecule `Cc1cc(-c2c(C)nn(C)c2C)cnc1-c1nnc(N(C)Cc2ccc3nccn3c2)o1`, the half-inhibitory concentration (IC50) is 0.1 µM in data set [2], 1 µM in data set [3] and 20 µM in data set [4].
`Cc1cc(-c2c(C)nn(C)c2C)ccc1-c1nnc(N(C)Cc2ccc3nccn3c2)o1`: the IC50 is 0.00316 µM in data set [2], 0.0794 µM in data set [3] and 15.8 µM in data set [4].

One may read the GI50 as the concentration at which growth is held to half of that of the control. One may read the fraction unbound as free concentration divided by total concentration. A low value points to extensive binding. For orientation: IC50 means the concentration that inhibits the measured activity by half. A lower IC50 goes with higher potency.
